Assay results reported in patent US9850283B2, “Macrocyclic inhibitors of the PD-1/PD-L1 and CD80(B7-1)/PD-L1 protein/protein interactions” (BRISTOL-MYERS SQUIBB COMPANY, priority 2013, dated 2017).
Where two headings read alike, the source gives them in different places. Positions of bridges follow the written chain, without caps; N, C: chain ends. Non-standard residues stand in square brackets, D forms with d. Residues, ends and D or L forms follow the SMILES beside them. Phe(3,4,5-F3) = N[C@@H](Cc1cc(F)c(F)c(F)c1)C(=O)O; Phe(4-CH2NH2) = NCc1ccc(C[C@H](N)C(=O)O)cc1; Phe(4-Cl) = N[C@@H](Cc1ccc(Cl)cc1)C(=O)O; Pro(4R-NH2) = N[C@H]1CN[C@H](C(=O)O)C1; Dopa = N[C@@H](Cc1ccc(O)c(O)c1)C(=O)O; Bta = N[C@@H](Cc1csc2ccccc12)C(=O)O; Hyp = O=C(O)[C@@H]1C[C@@H](O)CN1; NMeF = CN[C@@H](Cc1ccccc1)C(=O)O; NMeD = CN[C@@H](CC(=O)O)C(=O)O; NMeNle = CCCC[C@H](NC)C(=O)O; NMeA = CN[C@@H](C)C(=O)O; Dap = NC[C@H](N)C(=O)O; Sar = CNCC(=O)O

How the values were obtained:
Human PD-L1/PD-1 = target: T1, Human PD-L1/PD-1 (Homo sapiens, UniProt Q9NZQ7); test: HTRF PD-1-Ig/PD-L1-His binding assay (human PD-L1); settings: cluster symbol; read-out: HTRF IC50 cluster
T1 construct: made in house; host or cells: HEK293T
How it was run: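 Soluble Fc-fused PD-1 and His-tagged PD-L1 (truncated before the transmembrane region) were combined in dPBS with 0.1% (w/v) BSA and 0.05% (v/v) Tween-20. Binding was read by HTRF using europium cryptate anti-Ig antibody (1 nM final) and APC anti-His antibody (20 nM final).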

[1] = target: T2, LK35.2-hPD-L1 cells / PE-labeled PD-1-Ig (Homo sapiens, UniProt Q9NZQ7); test: LK35.2-hPD-L1 cell binding high-content screening assay; type: cell-based; settings: cluster symbol, read-out: CBA IC50 cluster
T2 construct: expressed in transfected cells; host or cells: LK35.2 mouse B cell line
How it was run: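 Readout: high-content imaging of PE-PD-1-Ig bound to LK35.2-hPD-L1 cells. Cells plated overnight (RPMI/10% FCS); compound + 1 nM PE-PD-1-Ig, 1 h, 37 °C; 3× dPBS wash before imaging.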

[2] = cell line of CBA not given (LK35.2-hPD-L1 or 293T-hPD-L1)
[3] = cell binding assay, cell line not given

T1 sequence (Q9NZQ7 with tags, fused parts or gaps): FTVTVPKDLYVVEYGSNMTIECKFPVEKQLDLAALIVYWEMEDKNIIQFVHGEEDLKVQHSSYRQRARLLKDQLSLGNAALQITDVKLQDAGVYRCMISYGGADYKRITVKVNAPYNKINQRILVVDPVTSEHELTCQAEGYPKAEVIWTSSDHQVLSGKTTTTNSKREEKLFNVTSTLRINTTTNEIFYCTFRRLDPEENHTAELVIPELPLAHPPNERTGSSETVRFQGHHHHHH
T2 sequence (Q9NZQ7 19-290): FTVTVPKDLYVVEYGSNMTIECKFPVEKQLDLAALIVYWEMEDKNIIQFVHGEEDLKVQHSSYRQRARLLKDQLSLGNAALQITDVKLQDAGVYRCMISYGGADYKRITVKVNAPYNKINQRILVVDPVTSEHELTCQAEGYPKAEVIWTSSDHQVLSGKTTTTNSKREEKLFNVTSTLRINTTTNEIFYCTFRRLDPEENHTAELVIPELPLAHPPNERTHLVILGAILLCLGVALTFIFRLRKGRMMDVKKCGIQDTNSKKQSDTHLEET

| IC50 (Human PD-L1/PD-1) | IC50 [1, 2] | IC50 [1, 3] | Structure (SMILES) |
| --- | --- | --- | --- |
| 6.76 to 30.3 nM | – | 4.78 to 72.9 nM | CCCC[C@H]1C(=O)N(C)[C@@H](CCCC)C(=O)N[C@@H](CCCNC(=N)N)C(=O)N[C@H](C(=O)NCC(N)=O)CSCC(=O)N[C@@H](Cc2ccc(CN)cc2)C(=O)N(C)[C@@H](C)C(=O)N[C@@H](CC(N)=O)C(=O)N2CCC[C@H]2C(=O)N[C@@H](CN)C(=O)N[C@@H](CC(C)C)C(=O)N2C[C@H](O)C[C@H]2C(=O)N[C@@H](Cc2c[nH]c3ccccc23)C(=O)N[C@@H](CO)C(=O)N[C@@H](Cc2c[nH]c3ccccc23)C(=O)N1C [Example 7042] ({CH2CO}-[Phe(4-CH2NH2)][NMeA]NP[Dap]L[Hyp]WSW[NMeNle][NMeNle]RCG-NH2; thioether N-14) |
| 0.385 to 6.74 nM | 4.78 to 72.9 nM | – | CCCC[C@H]1C(=O)N(C)[C@@H](CCCC)C(=O)N[C@@H](CCCNC(=N)N)C(=O)N[C@H](C(=O)NCC(N)=O)CSCC(=O)N[C@@H](Cc2ccc(O)cc2)C(=O)N(C)[C@@H](C)C(=O)N[C@@H](CCC(=O)O)C(=O)N2CCC[C@H]2C(=O)N[C@@H](Cc2cnc[nH]2)C(=O)N[C@@H](CC(C)C)C(=O)N2C[C@H](O)C[C@H]2C(=O)N[C@@H](Cc2c[nH]c3ccccc23)C(=O)N[C@@H](CO)C(=O)N[C@@H](Cc2c[nH]c3ccccc23)C(=O)N1C [Example 1175] ({CH2CO}-Y[NMeA]EPHL[Hyp]WSW[NMeNle][NMeNle]RCG-NH2; thioether N-14) |
| 0.385 to 6.74 nM | – | 0.158 to 4.71 nM | CCCC[C@H]1C(=O)N(C)[C@@H](CCCC)C(=O)N[C@@H](CCCNC(=N)N)C(=O)N[C@H](C(=O)NCC(N)=O)CSCC(=O)N[C@@H](Cc2ccc(OC)cc2)C(=O)N(C)[C@@H](C)C(=O)N[C@@H](CC(N)=O)C(=O)N2CCC[C@H]2C(=O)N[C@@H](Cc2cnc[nH]2)C(=O)N[C@@H](CC(C)C)C(=O)N2C[C@H](O)C[C@H]2C(=O)N[C@@H](Cc2c[nH]c3ccccc23)C(=O)N[C@@H](CO)C(=O)N[C@@H](Cc2c[nH]c3ccccc23)C(=O)N1C [Example 7060] |

Second part, the compound before the results:

| Structure (SMILES) | IC50 (Human PD-L1/PD-1) | IC50 [1, 2] | IC50 [1, 3] |
| --- | --- | --- | --- |
| CCCC[C@H]1C(=O)N2CCC[C@@H]2C(=O)N2C[C@H](N)C[C@H]2C(=O)N[C@@H](C(C)C)C(=O)N(C)[C@@H](Cc2ccccc2)C(=O)N[C@@H](Cc2ccc(O)cc2)C(=O)N2CCC[C@@H]2C(=O)N[C@@H](Cc2c[nH]c3ccccc23)C(=O)N[C@@H](Cc2ccc(O)cc2)C(=O)N[C@@H](CC(C)C)C(=O)N[C@H](C(=O)NCC(N)=O)CSCC(=O)N[C@@H](Cc2cc(F)c(F)c(F)c2)C(=O)N(C)[C@@H](Cc2ccccc2)C(=O)N1C [Example 3193] ({CH2CO}-[Phe(3,4,5-F3)][NMeF][NMeNle][dP][Pro(4R-NH2)]V[NMeF]Y[dP]WYLCG-NH2; thioether N-13) | 0.385 to 6.74 nM | 0.158 to 4.71 nM | – |
| CCCC[C@H]1C(=O)N(C)CC(=O)N[C@@H](CC(=O)O)C(=O)N[C@@H](C(C)C)C(=O)N(C)[C@@H](Cc2ccccc2)C(=O)N[C@@H](Cc2ccc(O)cc2)C(=O)N(C)CC(=O)N[C@@H](Cc2c[nH]c3ccccc23)C(=O)N[C@@H](Cc2ccc(O)c(O)c2)C(=O)N[C@@H](CC(C)C)C(=O)N[C@H](C(=O)NCC(N)=O)CSCC(=O)N[C@@H](Cc2cc(F)c(F)c(F)c2)C(=O)N(C)[C@@H](Cc2ccccc2)C(=O)N1C [Example 3609] ({CH2CO}-[Phe(3,4,5-F3)][NMeF][NMeNle][Sar]DV[NMeF]Y[Sar]W[Dopa]LCG-NH2; thioether N-13) | 0.385 to 6.74 nM | – | 0.158 to 4.71 nM |
| CCCC[C@H]1C(=O)N(C)[C@@H](CCCC)C(=O)N[C@@H](CCCNC(=N)N)C(=O)N[C@H](C(=O)NCC(N)=O)CSCC(=O)N[C@@H](Cc2ccccc2)C(=O)N(C)[C@@H](C)C(=O)N[C@@H](CC(N)=O)C(=O)N2CCC[C@H]2C(=O)N[C@@H](Cc2cnc[nH]2)C(=O)N[C@@H](CC(C)C)C(=O)N[C@@H](CC(N)=O)C(=O)N[C@@H](Cc2c[nH]c3ccccc23)C(=O)N[C@@H](CO)C(=O)N[C@@H](Cc2c[nH]c3ccccc23)C(=O)N1C [Example 1075] ({CH2CO}-F[NMeA]NPHLNWSW[NMeNle][NMeNle]RCG-NH2; thioether N-14) | > 30.5 nM | > 74.3 nM | – |
| CCCC[C@H]1C(=O)N(C)[C@@H](CCCC)C(=O)N[C@@H](CCCNC(=N)N)C(=O)N[C@H](C(=O)NCC(N)=O)CSCC(=O)N[C@@H](Cc2ccc(O)cc2)C(=O)N(C)[C@@H](CC(=O)O)C(=O)N[C@@H](CC(N)=O)C(=O)N2CCC[C@H]2C(=O)N[C@@H](Cc2cnc[nH]2)C(=O)N[C@@H](CC(C)C)C(=O)N2CCC[C@H]2C(=O)N[C@@H](Cc2c[nH]c3ccccc23)C(=O)N[C@@H](CO)C(=O)N[C@@H](Cc2csc3ccccc23)C(=O)N1C [Example 1190] ({CH2CO}-Y[NMeD]NPHLPWS[Bta][NMeNle][NMeNle]RCG-NH2; thioether N-14) | > 30.5 nM | > 74.3 nM | – |
| CCCC[C@H]1C(=O)N(C)[C@@H](CCCC)C(=O)N[C@@H](CCC(=O)O)C(=O)N[C@H](C(=O)NCC(N)=O)CSCC(=O)N[C@@H](Cc2ccc(O)cc2)C(=O)N(C)[C@@H](C)C(=O)N[C@@H](CC(N)=O)C(=O)N2CCC[C@H]2C(=O)N[C@@H](Cc2c[nH]cn2)C(=O)N[C@@H](CCCCN)C(=O)N2C[C@H](O)C[C@H]2C(=O)N[C@@H](Cc2c[nH]c3ccccc23)C(=O)N[C@@H](CCCCN)C(=O)N[C@@H](Cc2c[nH]c3ccccc23)C(=O)N1C [Example 5100] ({CH2CO}-Y[NMeA]NPHK[Hyp]WKW[NMeNle][NMeNle]ECG-NH2; thioether N-14) | 6.76 to 30.3 nM | – | 0.158 to 4.71 nM |
| CCCC[C@H]1C(=O)N(C)[C@@H](CCCC)C(=O)N[C@@H](CCCNC(=N)N)C(=O)N[C@H](C(=O)NCC(N)=O)CSCC(=O)N[C@@H](Cc2ccc(O)cc2)C(=O)N(C)[C@@H](C)C(=O)N[C@@H](CC(N)=O)C(=O)N2CCC[C@H]2C(=O)N[C@@H](Cc2cnc[nH]2)C(=O)N[C@@H](CCC(=O)O)C(=O)N2CCC[C@H]2C(=O)N[C@@H](Cc2c[nH]c3ccccc23)C(=O)N[C@@H](CO)C(=O)N[C@@H](Cc2csc3ccccc23)C(=O)N1C [Example 1115] ({CH2CO}-Y[NMeA]NPHEPWS[Bta][NMeNle][NMeNle]RCG-NH2; thioether N-14) | 0.385 to 6.74 nM | 0.158 to 4.71 nM | – |
| CCCC[C@H]1C(=O)N(C)CC(=O)N[C@@H](CC(=O)O)C(=O)N[C@@H](C(C)C)C(=O)N[C@@H](Cc2ccc(Cl)cc2)C(=O)N[C@@H](Cc2ccc(O)cc2)C(=O)N(C)CC(=O)N[C@@H](Cc2c[nH]c3ccccc23)C(=O)N[C@@H](Cc2ccc(O)cc2)C(=O)N[C@@H](CC(C)C)C(=O)N[C@H](C(=O)NCC(N)=O)CSCC(=O)N[C@@H](Cc2ccccc2)C(=O)N(C)[C@@H](Cc2ccccc2)C(=O)N1C [Example 3145] ({CH2CO}-F[NMeF][NMeNle][Sar]DV[Phe(4-Cl)]Y[Sar]WYLCG-NH2; thioether N-13) | > 30.5 nM | > 74.3 nM | – |
| CCCC[C@H]1C(=O)N(C)[C@@H](CCCC)C(=O)N[C@@H](CC(C)C)C(=O)N[C@H](C(=O)NCC(N)=O)CSCC(=O)N[C@@H](Cc2ccc(O)cc2)C(=O)N(C)[C@@H](C)C(=O)N[C@@H](CC(N)=O)C(=O)N(C)CC(=O)N[C@@H](Cc2c[nH]cn2)C(=O)N[C@@H](CCC(N)=O)C(=O)N2C[C@H](O)C[C@H]2C(=O)N[C@@H](Cc2c[nH]c3ccccc23)C(=O)N[C@@H](CO)C(=O)N[C@@H](Cc2c[nH]c3ccccc23)C(=O)N1C [Example 5084] ({CH2CO}-Y[NMeA]N[Sar]HQ[Hyp]WSW[NMeNle][NMeNle]LCG-NH2; thioether N-14) | 6.76 to 30.3 nM | – | 4.78 to 72.9 nM |
